# Reference: ChEMBL document CHEMBL5727525, “4,5-substituted picolinamide and picolinonitrile metabotropic glutamate receptor 2 negative allosteric modulators” (2020)
# Experiment: Ca2+ Flux Assay: GÎ±15 HEK293 cells stably expressing rat mGlu2 were plated in black-walled, clear-bottomed, poly-D-lysine coated 384-well plates in 20 Î¼L of assay medium (DMEM containing 10% dialyzed FBS, 20 mM HEPES, and 1 mM sodium pyruvate) at a density of 12K cells/well. The cells were grown overnight at 37° C. in the presence of 5% CO2. The next day, medium was removed and the cells incubated with 20 Î¼L of 2.3 Î¼M Fluo-4, AM prepared as a 2.3 mM stock in DMSO and mixed in a 1:1 ratio with 10% (w/v) pluronic acid F-127 and diluted in assay buffer (Hank's balanced salt solution, 20 mM HEPES, and 2.5 mM probenecid) for 45 minutes at 37° C. Dye was removed, 20 Î¼L of assay buffer was added, and the plate was incubated for 5 minutes at room temperature.
row,Compound,IC50
1,Cn1cc(-c2cc(C(N)=O)ncc2OCc2ccc(C(F)(F)F)nc2)cn1,> 10 µM
2,C[C@@H]1CN(CCOc2cnc(C#N)cc2-c2ccc(F)cc2)C[C@H](C)O1,> 30 µM
3,NC(=O)c1cc(-c2ccc(F)cc2)c(OCCOc2ccccc2F)cn1,2.01 µM

# More lines, now with the values ahead:
row,IC50,Compound
1,> 10 µM,C[C@@H]1CN(CCCOc2cnc(C(N)=O)cc2-c2ccc(F)cc2)C[C@H](C)O1
2,> 10 µM,C[C@@H]1CN(CCOc2cnc(C(N)=O)cc2-c2ccc(F)cc2)C[C@H](C)O1
